Measured values from paper PMC3639963, “A New Class of Small Molecule Inhibitor of BMP Signaling” (PLoS ONE, 2013).

How the values were obtained:
Test in all cases: DSF thermal shift
Format in all cases: binding
Conditions in all cases: 10 µM inhibitor; read-out: Tm shift
CHEK2 = target: T1, CHEK2 (Homo sapiens, UniProt O96017)
T1 construct: purchased Nanosyn (enzymatic panel); SGC in-house recombinant human kinases (DSF panel); Invitrogen (ALK1-6)
Experimental: (§1) Thermal melting experiments were performed using a Real Time PCR machine Mx3005p (Stratagene) with a protein concentration of 1–2 µM and 10 µM inhibitor as described previously, [25]. […] Recombinant human kinases for DSF screening were prepared by SGC using published methods, [36].

CLK2 = target: T2, CLK2 (Homo sapiens, UniProt P49760)
T2 construct: purchased Nanosyn (enzymatic panel); SGC in-house recombinant human kinases (DSF panel); Invitrogen (ALK1-6)
Experimental: as §1

DRAK2 = target: T3, DRAK2 (Homo sapiens, UniProt O94768)
T3 construct: purchased Nanosyn (enzymatic panel); SGC in-house recombinant human kinases (DSF panel); Invitrogen (ALK1-6)
T3 sequence (O94768 1-372): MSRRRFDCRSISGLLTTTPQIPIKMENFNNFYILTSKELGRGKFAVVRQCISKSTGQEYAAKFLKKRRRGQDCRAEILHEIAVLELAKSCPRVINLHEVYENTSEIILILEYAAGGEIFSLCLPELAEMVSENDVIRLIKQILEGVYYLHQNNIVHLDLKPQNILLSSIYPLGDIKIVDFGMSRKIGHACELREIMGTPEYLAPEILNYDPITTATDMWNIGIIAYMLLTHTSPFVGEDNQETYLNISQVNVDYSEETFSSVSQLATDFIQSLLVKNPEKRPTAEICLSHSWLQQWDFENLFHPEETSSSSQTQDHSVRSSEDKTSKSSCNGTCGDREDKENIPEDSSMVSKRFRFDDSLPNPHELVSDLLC
Experimental: as §1

LOK = target: T4, LOK (Homo sapiens, UniProt O94804)
T4 construct: purchased Nanosyn (enzymatic panel); SGC in-house recombinant human kinases (DSF panel); Invitrogen (ALK1-6)
Experimental: as §1

PIM2 = target: T5, PIM2 (Homo sapiens, UniProt Q9P1W9)
T5 construct: purchased Nanosyn (enzymatic panel); SGC in-house recombinant human kinases (DSF panel); Invitrogen (ALK1-6)
Experimental: as §1

PIM3 = target: T6, PIM3 (Homo sapiens, UniProt Q86V86)
T6 construct: purchased Nanosyn (enzymatic panel); SGC in-house recombinant human kinases (DSF panel); Invitrogen (ALK1-6)
Experimental: as §1

PLK4 = target: T7, PLK4 (Homo sapiens, UniProt O00444)
T7 construct: purchased Nanosyn (enzymatic panel); SGC in-house recombinant human kinases (DSF panel); Invitrogen (ALK1-6)
T7 sequence (O00444 1-970): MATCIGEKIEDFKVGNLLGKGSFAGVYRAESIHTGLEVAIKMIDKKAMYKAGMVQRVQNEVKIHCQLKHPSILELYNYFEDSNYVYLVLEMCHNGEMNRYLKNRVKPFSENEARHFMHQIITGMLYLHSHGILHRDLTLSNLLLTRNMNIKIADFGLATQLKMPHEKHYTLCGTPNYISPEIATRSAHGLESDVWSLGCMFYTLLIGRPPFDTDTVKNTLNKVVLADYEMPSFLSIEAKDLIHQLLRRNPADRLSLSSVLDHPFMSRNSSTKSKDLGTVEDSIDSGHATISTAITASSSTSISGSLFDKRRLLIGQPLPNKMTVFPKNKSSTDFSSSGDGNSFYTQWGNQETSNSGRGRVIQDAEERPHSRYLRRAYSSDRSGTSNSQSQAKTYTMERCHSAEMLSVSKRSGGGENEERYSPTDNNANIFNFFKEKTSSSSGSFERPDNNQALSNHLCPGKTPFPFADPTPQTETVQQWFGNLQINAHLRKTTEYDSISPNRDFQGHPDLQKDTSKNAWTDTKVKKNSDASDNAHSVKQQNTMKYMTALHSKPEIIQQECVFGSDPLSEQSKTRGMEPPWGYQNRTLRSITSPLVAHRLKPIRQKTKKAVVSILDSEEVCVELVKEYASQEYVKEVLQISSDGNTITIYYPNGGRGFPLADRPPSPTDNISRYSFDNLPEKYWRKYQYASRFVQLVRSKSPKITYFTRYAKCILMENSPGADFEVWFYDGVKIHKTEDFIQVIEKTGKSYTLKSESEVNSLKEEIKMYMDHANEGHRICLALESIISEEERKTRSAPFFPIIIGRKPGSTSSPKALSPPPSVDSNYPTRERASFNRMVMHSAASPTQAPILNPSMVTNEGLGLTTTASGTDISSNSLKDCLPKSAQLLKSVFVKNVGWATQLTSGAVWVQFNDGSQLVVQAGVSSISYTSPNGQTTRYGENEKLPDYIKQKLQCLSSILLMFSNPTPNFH
Experimental: as §1

PTK7 = target: T8, PTK7 (Homo sapiens, UniProt Q13308)
T8 construct: purchased Nanosyn (enzymatic panel); SGC in-house recombinant human kinases (DSF panel); Invitrogen (ALK1-6)
T8 sequence (Q13308 31-1070): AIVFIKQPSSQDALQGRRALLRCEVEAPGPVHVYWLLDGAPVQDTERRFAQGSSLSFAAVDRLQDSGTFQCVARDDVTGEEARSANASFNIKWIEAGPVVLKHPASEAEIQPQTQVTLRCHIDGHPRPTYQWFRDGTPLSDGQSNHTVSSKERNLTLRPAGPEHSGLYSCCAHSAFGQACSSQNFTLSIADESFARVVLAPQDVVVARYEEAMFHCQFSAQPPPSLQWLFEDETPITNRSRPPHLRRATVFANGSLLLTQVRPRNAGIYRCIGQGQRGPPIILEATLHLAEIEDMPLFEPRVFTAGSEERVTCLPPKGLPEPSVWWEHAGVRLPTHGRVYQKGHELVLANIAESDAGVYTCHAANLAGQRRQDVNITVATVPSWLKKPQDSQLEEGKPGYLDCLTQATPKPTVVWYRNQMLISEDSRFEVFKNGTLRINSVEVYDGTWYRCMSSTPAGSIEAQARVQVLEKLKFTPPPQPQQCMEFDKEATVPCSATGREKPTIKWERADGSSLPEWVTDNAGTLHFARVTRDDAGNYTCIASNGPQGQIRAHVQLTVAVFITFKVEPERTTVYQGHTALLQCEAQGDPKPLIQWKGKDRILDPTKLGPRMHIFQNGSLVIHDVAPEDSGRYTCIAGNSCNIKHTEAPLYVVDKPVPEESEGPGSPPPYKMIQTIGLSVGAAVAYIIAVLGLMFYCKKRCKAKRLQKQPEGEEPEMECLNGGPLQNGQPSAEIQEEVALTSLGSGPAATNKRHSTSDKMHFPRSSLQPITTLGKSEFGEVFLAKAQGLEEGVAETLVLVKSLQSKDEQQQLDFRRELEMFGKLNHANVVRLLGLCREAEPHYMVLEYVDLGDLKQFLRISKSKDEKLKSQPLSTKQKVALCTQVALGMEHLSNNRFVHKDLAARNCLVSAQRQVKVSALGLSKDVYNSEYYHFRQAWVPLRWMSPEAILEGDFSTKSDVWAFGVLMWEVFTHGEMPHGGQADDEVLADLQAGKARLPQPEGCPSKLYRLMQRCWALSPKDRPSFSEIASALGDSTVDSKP
Experimental: as §1

RSK1 = target: T9, RSK1 (Homo sapiens, UniProt Q15418)
T9 construct: purchased Nanosyn (enzymatic panel); SGC in-house recombinant human kinases (DSF panel); Invitrogen (ALK1-6)
Experimental: as §1

SLK = target: T10, SLK (Homo sapiens, UniProt Q9H2G2)
T10 construct: purchased Nanosyn (enzymatic panel); SGC in-house recombinant human kinases (DSF panel); Invitrogen (ALK1-6)
Experimental: as §1

VRK2 = target: T11, VRK2 (Homo sapiens, UniProt Q86Y07)
T11 construct: purchased Nanosyn (enzymatic panel); SGC in-house recombinant human kinases (DSF panel); Invitrogen (ALK1-6)
Experimental: as §1

T5 sequence (Q9P1W9 whole entry): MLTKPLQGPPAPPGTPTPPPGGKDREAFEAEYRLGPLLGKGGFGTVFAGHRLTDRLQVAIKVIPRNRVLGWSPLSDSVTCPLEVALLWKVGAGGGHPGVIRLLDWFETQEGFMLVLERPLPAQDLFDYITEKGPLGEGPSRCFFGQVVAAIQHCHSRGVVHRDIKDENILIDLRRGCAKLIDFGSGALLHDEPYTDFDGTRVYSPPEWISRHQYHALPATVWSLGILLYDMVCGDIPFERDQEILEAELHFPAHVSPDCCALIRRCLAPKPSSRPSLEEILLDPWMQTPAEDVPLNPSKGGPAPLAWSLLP
T4 sequence (O94804 whole entry): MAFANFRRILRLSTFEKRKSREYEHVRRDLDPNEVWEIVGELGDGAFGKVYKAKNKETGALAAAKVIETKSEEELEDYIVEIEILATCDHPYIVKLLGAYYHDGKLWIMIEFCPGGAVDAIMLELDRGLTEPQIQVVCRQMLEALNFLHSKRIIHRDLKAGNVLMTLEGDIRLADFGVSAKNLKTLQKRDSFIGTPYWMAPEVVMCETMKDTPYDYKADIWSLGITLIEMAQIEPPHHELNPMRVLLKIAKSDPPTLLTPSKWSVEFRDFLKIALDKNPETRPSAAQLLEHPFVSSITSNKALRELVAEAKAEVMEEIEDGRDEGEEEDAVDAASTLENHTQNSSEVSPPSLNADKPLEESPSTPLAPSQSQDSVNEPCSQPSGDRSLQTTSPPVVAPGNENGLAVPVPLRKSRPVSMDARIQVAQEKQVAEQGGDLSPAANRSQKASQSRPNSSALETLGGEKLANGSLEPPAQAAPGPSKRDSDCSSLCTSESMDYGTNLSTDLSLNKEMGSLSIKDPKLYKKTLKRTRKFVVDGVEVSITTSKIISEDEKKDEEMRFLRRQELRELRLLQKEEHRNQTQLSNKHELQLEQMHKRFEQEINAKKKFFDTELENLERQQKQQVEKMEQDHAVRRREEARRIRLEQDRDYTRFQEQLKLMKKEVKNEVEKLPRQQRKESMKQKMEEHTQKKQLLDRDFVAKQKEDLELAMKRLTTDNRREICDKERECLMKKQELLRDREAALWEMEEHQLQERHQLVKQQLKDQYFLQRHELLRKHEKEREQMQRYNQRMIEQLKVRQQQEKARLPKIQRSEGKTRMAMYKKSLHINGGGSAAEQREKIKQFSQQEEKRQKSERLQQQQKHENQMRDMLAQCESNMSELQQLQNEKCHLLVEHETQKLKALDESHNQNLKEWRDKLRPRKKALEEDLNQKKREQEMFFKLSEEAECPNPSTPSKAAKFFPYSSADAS
T9 sequence (Q15418 whole entry): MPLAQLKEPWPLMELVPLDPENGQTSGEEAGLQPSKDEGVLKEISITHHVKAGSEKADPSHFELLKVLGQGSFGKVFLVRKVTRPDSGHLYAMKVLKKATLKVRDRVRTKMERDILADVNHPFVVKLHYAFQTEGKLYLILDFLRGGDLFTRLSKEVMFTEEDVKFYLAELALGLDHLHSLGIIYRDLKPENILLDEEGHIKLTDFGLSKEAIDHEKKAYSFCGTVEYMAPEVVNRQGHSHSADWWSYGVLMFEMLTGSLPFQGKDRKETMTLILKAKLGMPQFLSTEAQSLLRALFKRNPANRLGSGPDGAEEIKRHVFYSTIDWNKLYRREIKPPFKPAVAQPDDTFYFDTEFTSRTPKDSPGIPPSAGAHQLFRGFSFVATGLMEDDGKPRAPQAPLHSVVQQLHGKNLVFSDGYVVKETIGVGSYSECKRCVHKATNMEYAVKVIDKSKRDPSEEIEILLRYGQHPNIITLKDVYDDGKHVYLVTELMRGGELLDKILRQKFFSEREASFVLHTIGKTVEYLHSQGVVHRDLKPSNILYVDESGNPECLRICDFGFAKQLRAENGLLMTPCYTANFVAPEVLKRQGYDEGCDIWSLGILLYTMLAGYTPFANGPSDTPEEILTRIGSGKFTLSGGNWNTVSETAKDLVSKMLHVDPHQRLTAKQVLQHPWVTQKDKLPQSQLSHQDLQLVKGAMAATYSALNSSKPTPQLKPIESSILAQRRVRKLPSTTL
T1 sequence (O96017 whole entry): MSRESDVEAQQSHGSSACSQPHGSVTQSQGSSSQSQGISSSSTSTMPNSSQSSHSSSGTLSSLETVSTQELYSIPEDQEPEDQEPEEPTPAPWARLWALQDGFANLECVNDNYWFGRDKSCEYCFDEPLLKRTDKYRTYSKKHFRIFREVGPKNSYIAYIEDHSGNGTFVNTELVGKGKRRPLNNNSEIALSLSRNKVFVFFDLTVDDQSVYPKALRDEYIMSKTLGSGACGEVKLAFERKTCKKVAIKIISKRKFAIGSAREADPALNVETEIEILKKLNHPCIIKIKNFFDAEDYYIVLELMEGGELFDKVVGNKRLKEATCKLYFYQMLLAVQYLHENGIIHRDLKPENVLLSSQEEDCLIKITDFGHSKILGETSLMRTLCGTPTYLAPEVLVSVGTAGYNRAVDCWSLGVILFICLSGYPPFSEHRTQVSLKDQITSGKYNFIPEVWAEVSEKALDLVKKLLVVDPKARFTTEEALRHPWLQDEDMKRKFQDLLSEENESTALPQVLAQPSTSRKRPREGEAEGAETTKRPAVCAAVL
T2 sequence (P49760 whole entry): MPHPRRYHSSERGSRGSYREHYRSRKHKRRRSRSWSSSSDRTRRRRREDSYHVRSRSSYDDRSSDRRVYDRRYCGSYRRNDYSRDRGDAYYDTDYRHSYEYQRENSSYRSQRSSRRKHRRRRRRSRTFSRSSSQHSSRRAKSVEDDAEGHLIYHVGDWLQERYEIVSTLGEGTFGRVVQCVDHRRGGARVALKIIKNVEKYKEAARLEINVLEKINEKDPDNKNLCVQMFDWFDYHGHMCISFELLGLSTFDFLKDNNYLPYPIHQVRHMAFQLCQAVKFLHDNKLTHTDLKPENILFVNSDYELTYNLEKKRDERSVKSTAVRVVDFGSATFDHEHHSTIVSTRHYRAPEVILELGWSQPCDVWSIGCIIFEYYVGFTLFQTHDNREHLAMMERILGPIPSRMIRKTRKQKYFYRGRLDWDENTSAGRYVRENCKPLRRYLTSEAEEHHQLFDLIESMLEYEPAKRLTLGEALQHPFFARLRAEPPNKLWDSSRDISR
T10 sequence (Q9H2G2 whole entry): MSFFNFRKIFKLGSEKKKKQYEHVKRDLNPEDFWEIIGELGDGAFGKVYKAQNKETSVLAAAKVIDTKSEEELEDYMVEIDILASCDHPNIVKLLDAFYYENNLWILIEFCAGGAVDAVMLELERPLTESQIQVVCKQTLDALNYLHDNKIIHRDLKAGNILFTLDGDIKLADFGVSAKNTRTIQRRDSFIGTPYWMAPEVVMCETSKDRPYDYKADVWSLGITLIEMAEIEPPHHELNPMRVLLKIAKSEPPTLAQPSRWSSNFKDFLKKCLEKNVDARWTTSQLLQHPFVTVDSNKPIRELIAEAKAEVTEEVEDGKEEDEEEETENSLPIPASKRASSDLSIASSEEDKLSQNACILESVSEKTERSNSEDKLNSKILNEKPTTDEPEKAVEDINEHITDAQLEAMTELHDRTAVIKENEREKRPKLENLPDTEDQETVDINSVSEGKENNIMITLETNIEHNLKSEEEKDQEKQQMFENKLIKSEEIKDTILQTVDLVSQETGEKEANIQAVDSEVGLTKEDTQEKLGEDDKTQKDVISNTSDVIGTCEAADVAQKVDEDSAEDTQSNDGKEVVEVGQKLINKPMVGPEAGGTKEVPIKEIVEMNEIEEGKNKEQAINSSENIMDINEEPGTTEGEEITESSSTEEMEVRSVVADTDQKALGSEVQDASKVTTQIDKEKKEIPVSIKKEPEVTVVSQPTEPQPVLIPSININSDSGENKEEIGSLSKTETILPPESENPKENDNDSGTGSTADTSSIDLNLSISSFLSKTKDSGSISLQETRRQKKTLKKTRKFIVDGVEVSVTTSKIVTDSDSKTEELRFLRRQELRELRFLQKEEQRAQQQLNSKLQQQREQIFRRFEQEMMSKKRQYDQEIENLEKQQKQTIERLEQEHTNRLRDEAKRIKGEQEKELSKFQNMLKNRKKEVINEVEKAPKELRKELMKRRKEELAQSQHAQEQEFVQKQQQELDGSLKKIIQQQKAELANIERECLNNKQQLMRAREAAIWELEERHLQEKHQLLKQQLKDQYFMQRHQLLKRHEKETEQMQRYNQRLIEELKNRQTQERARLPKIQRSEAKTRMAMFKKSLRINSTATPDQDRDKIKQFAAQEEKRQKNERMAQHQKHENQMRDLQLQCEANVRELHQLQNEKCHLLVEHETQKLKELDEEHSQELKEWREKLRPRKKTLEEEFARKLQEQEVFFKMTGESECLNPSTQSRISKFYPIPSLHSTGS

Row | Structure (SMILES) | ΔTm at 10 µM (CHEK2) [°C] | ΔTm at 10 µM (CLK2) [°C] | ΔTm at 10 µM (DRAK2) [°C] | ΔTm at 10 µM (LOK) [°C] | ΔTm at 10 µM (PIM2) [°C] | ΔTm at 10 µM (PIM3) [°C] | ΔTm at 10 µM (PLK4) [°C] | ΔTm at 10 µM (PTK7) [°C] | ΔTm at 10 µM (RSK1) [°C] | ΔTm at 10 µM (SLK) [°C] | ΔTm at 10 µM (VRK2) [°C]
1 | c1cc(-c2cnn3cc(-c4ccc(OCCN5CCCCC5)cc4)cnc23)ccn1 [Dorsomorphin] | 1.7 | 5 | 10 | 2.5 | 0.6 | 0.6 | 4.2 | -1.2 | 2.8 | 1.6 | 0.2
2 | COc1cc(-c2cc(-c3cccc(O)c3)cnc2N)cc(OC)c1OC [K02288, 3-[6-amino-5-(3,4,5-trimethoxy-phenyl)-pyridin-3-yl]-phenol] | 0 | 0 | 0.6 | 2.1 | 0.1 | -0.2 | 0 | -1.3 | 1.1 | 1 | 0.6
3 | c1ccc2c(-c3cnn4cc(-c5ccc(N6CCNCC6)cc5)cnc34)ccnc2c1 [LDN-193189] | 1.4 | 3.3 | 2.1 | 3.1 | -1.3 | -0.2 | 3.7 | -0.3 | 3.3 | 1.2 | -0.2
